Experimental data reported in paper PMC10439230 (Scientific Reports, 2023).

Columns and labels:
[1] = system: HL-60 (acute promyelocytic leukemia); assay: Cytotoxic activity assay (XTT); format: cell-based, human; conditions: for IC50: Homo sapiens, HL-60, 48 h exposure, XTT, read-out: Cell lines, IC50 (μM) HL-60; for Selectivity Index (SI) values HL-60: SI = IC50 normal cell (MRC-5)/ IC50 cancer cell
Description: (§1) The synthetic compounds were screened for their cytotoxic activity using standard MTT or XTT methods[30] against a panel of nine human cancer cell lines and one normal cell line, including MDA-MB-231 (triple-negative breast cancer), T-47D (hormone-dependent breast cancer), HepG2 (hepatocellular carcinoma), A549 (lung adenocarcinoma), H69AR (multidrug-resistant small cell lung carcinoma), HuCCA-1 (cholangiocarcinoma derived from a patient), HeLa (cervical carcinoma), and two leukemia cell lines, HL-60 (acute promyelocytic leukemia) and MOLT-3 (T cell acute lymphoblastic leukemia). MRC-5 normal embryonic lung fibroblast cell line was used to represent normal cells. Chemotherapeutic drugs, doxorubicin and etoposide, were used as positive controls.
(§2) The cells were seeded into 96-well plates (100 µL for adherent cells and 75 µL for suspended cells) at a density of 5000–20,000 cells per well, depending on their growth rates. Adherent and suspended cells were then allowed to grow at 37 °C with 95% humidity and 5% CO2 for 24 h and 30 min, respectively. The cytotoxicity assay was initiated by adding an equal volume of cell culture medium containing tested compound at predetermined concentrations. Following 48 h of exposure, cell viability was determined using MTT assay for adherent cells[51],[52]or XTT assay for suspeended cells. Briefly, for adherent cells, 100 µL of the MTT reagent was added to each well, and the microtiter plates were further incubated for 2.5–4 h. The medium was subsequently replaced with 100 µL of DMSO to dissolve the purple formazan before the absorbance at 550 nm was measured using a microplate reader (a SpectraMax Plus 384) with a reference wavelength of 650 nm. For suspended cells, 75 µL of the XTT reagent was added to each well, and the cells were further incubated for 4 h. Afterwards, the absorbance of orange formazan at 492 nm was measured with a reference wavelength of 690 nm using a microplate reader.

[2] = system: MOLT-3 (T cell acute lymphoblastic leukemia); assay: Cytotoxic activity assay (XTT); format: cell-based, human; conditions: for IC50: Homo sapiens, MOLT-3, 48 h exposure, XTT, read-out: Cell lines, IC50 (μM) MOLT-3; for Selectivity Index (SI) values MOLT-3: SI = IC50 normal cell (MRC-5)/ IC50 cancer cell
Description: as §1, §2

[3] = system: MRC-5 normal embryonic lung fibroblast cell line; assay: Cytotoxic activity assay (MTT), normal cells; format: cell-based; conditions: Homo sapiens, MRC5, 48 h exposure, read-out: Cell lines, IC50 (μM) MRC-5
Description: as §1, §2

[4] = system: HuCCA-1 (cholangiocarcinoma derived from a patient); assay: Cytotoxic activity assay (MTT); format: cell-based, human; conditions: for IC50: Homo sapiens, HuCC-A1, 48 h exposure, MTT, read-out: Cell lines, IC50 (μM) HuCCA-1; for Selectivity Index (SI) values HuCCA-1: SI = IC50 normal cell (MRC-5)/ IC50 cancer cell
Description: as §1, §2

[5] = system: HepG2 (hepatocellular carcinoma); assay: Cytotoxic activity assay (MTT); format: cell-based, human; conditions: for IC50: Homo sapiens, HepG2, 48 h exposure, MTT, read-out: Cell lines, IC50 (μM) HepG2; for Selectivity Index (SI) values HepG2: SI = IC50 normal cell (MRC-5)/ IC50 cancer cell
Description: as §1, §2

[6] = system: MDA-MB-231 (triple-negative breast cancer); assay: Cytotoxic activity assay (MTT); format: cell-based, human; conditions: for IC50: Homo sapiens, MDA-MB-231, 48 h exposure, MTT, read-out: Cell lines, IC50 (μM) MDA-MB-231; for Selectivity Index (SI) values MDA-MB-231: SI = IC50 normal cell (MRC-5)/ IC50 cancer cell
Description: as §1, §2

[7] = system: HeLa (cervical carcinoma); assay: Cytotoxic activity assay (MTT); format: cell-based, human; conditions: for IC50: Homo sapiens, 48 h exposure, MTT, read-out: Cell lines, IC50 (μM) HeLa; for Selectivity Index (SI) values HeLa: SI = IC50 normal cell (MRC-5)/ IC50 cancer cell
Description: as §1, §2

[8] = system: H69AR (multidrug-resistant small cell lung carcinoma); assay: Cytotoxic activity assay (MTT); format: cell-based, human; conditions: for IC50: Homo sapiens, H69AR, 48 h exposure, MTT, read-out: Cell lines, IC50 (μM) H69AR; for Selectivity Index (SI) values H69AR: SI = IC50 normal cell (MRC-5)/ IC50 cancer cell
Description: as §1, §2

[9] = system: A549 (lung adenocarcinoma); assay: Cytotoxic activity assay (MTT); format: cell-based, human; conditions: for IC50: Homo sapiens, A549, 48 h exposure, MTT, read-out: Cell lines, IC50 (μM) A549; for Selectivity Index (SI) values A549: SI = IC50 normal cell (MRC-5)/ IC50 cancer cell
Description: as §1, §2

[10] = system: T-47D (hormone-dependent breast cancer); assay: Cytotoxic activity assay (MTT); format: cell-based, human; conditions: for IC50: Homo sapiens, T47D, 48 h exposure, MTT, read-out: Cell lines, IC50 (μM) T47-D; for Selectivity Index (SI) values T47-D: SI = IC50 normal cell (MRC-5)/ IC50 cancer cell
Description: as §1, §2

| Compound | IC50 [1] | Selectivity Index (SI) values HL-60 [1] | IC50 [2] | Selectivity Index (SI) values MOLT-3 [2] | IC50 [3] | IC50 [4] | Selectivity Index (SI) values HuCCA-1 [4] | IC50 [5] | Selectivity Index (SI) values HepG2 [5] | IC50 [6] | Selectivity Index (SI) values MDA-MB-231 [6] | IC50 [7] | Selectivity Index (SI) values HeLa [7] | IC50 [8] | Selectivity Index (SI) values H69AR [8] | IC50 [9] | Selectivity Index (SI) values A549 [9] | IC50 [10] | Selectivity Index (SI) values T47-D [10] |
| --- | --- | --- | --- | --- | --- | --- | --- | --- | --- | --- | --- | --- | --- | --- | --- | --- | --- | --- | --- |
| C=C1CC[C@H]2C(C)(C)CCC[C@]2(C)[C@H]1CC/C(C)=C/C(=O)NOC [Compound 4i, (E)-N-Methoxy-3-methyl-5-((1S,4aS,8aS)-5,5,8a-trimethyl-2-methylene-decahydronaphthalen-1-yl)pent-2-enamide] | 24.9 ± 0.45 µM | 2.1 | 21.4 ± 1.29 µM | 2.5 | 52.68 ± 0.03 µM | 49.8 ± 0.18 µM | 1.1 | 44.26 ± 0.4 µM | 1.2 | 45 ± 0.86 µM | 1.2 | 53.8 ± 0.83 µM | 1.0 | 96.91 ± 0.46 µM | 0.5 | 45.7 ± 0.63 µM | 1.2 | 41.3 ± 1.61 µM | 1.3 |
| C=C1CC[C@H]2C(C)(C)CCC[C@]2(C)[C@H]1CC/C(C)=C/C(=O)NN [Compound 4k, (E)-3-Methyl-5-((1S,4aS,8aS)-5,5,8a-trimethyl-2-methylenedecahydro-naphthalen-1-yl)pent-2-enehydrazide] | 108 ± 1.53 µM | 1.4 | 29.3 ± 2.43 µM | 5.0 | 145.8 ± 0.34 µM | 130 ± 2 µM | 1.1 | > 120 µM | 0.9 | 98.5 ± 3.01 µM | 1.5 | 118.78 ± 0.06 µM | 1.2 | > 120 µM | 0.9 | > 120 µM | 0.9 | > 120 µM | 0.9 |
| C=C1CCC2C(C)(C)CCCC2(C)C1CCC(C)=CCO (stereo not shown) [Compound 2, anticopalol] | 27.7 ± 0.31 µM | 2.0 | 32.2 ± 1.44 µM | 1.7 | 54.15 ± 0.31 µM | 51.5 ± 0.24 µM | 1.1 | 52.33 ± 0.34 µM | 1.0 | 31.77 ± 0.13 µM | 1.7 | 37.49 ± 0.04 µM | 1.4 | 111.9 ± 0.71 µM | 0.5 | 60.52 ± 0.22 µM | 0.9 | 52.33 ± 0.34 µM | 1.0 |
| C=CCNC(=O)/C=C(\C)CC[C@H]1C(=C)CC[C@H]2C(C)(C)CCC[C@]12C [Compound 4b, (E)-N-Allyl-3-methyl-5-((1S,4aS,8aS)-5,5,8a-trimethyl-2-methylenedeca-hydronaphthalen-1-yl)pent-2-enamide] | 22.7 ± 0.84 µM | 6.4 | 25.4 ± 0.51 µM | 5.7 | > 120 µM | > 120 µM | 1.0 | 107 ± 1.28 µM | 1.4 | 114.3 ± 0.72 µM | 1.3 | 79.61 ± 0.49 µM | 1.8 | > 120 µM | 1.0 | > 120 µM | 1.0 | > 120 µM | 1.0 |
